Data: patent US5229131A, “Pulsatile drug delivery system” (priority 1991, dated 1993)
Where a name gives a salt, the structure may show the parent alone. Read-outs that look alike come from different tables or passages of the source.

How the values were obtained:
[1] = cited from earlier work
[2] = in vivo; details: dog, iv
Procedure: Single IV doses were given to each of a group of four beagle dogs: 5 mg of propranolol free base was dissolved in 3 ml sterile sodium chloride solution USP. The solution was infused over a 20 second period through an in-line millipore filter. Blood samples (1 ml) were withdrawn at desired intervals postinfusion. The IV results are shown as a " ." Similarly, blood plasma samples were withdrawn and analyzed for oral administration of 80 mg propranolol in immediate release form (" ") and the polymer coated dosage delivery form of section A. above ("+").
DDT is indicated by the release of citric acid from the drug-containing core which causes a spike in the pH time profile. The pH will remain depressed for the duration of the dissolution of the citric acid.
Blood samples (1 ml) were withdrawn at 5, 10, 15, 20, 30, 40, 50, 60, 70, 80, 90, 105, 120, 150, 180, 240, 300, 360 and 420 minutes after dosing for the immediate release dosage form. For the polymer coated tablets, the sampling schedule began at the time of coating dissolution (CDT). After dissolution, blood samples (1 ml) were withdrawn at 5, 15, 30, 45, 60, 90, 120, 190, 240, 300, 360 and 420 minutes.

[3] = in man; cited from earlier work
[4] = saturated solution; cited from earlier work
[5] = list of drugs with nonlinear kinetics

Row | SMILES | F [1, 5] | also measured
1 | CC(C)C[C@H]1C(=O)N2CCC[C@H]2[C@]2(O)O[C@](NC(=O)[C@@H]3C=C4c5cccc6[nH]c(Br)c(c56)C[C@H]4N(C)C3)(C(C)C)C(=O)N12 [Bromocriptine Mesylate] | 0.6 | 
2 | CN/C(=N/CCSCc1nc[nH]c1C)NC#N [Cimetidine] | 0.7 | 
3 | C#C[C@]1(O)CC[C@H]2[C@@H]3CCc4cc(O)ccc4[C@H]3CC[C@@]21C [Ethinylestradiol] | 0.4 | 
4 | C[C@H]1C[C@@H]2[C@H]([C@@H](O)C[C@@]3(C)[C@H]2CC[C@]3(O)C(=O)CO)[C@@]2(C)C=CC(=O)C=C12 [Methylprednisolone] | 0.85 | 
5 | C#C[C@]1(O)CC[C@H]2[C@@H]3CCC4=CC(=O)CC[C@@H]4[C@H]3CC[C@@]21C [Norethindrone] | 0.65 | 
6 | C[C@]12C=CC(=O)C=C1CC[C@@H]1[C@@H]2C(=O)C[C@@]2(C)[C@H]1CC[C@]2(O)C(=O)CO [Prednisone] |  | F ([1]; in vivo): 0.85
7 | CC(C)NCC(O)COc1cccc2ccccc12 (stereo not shown) [propranolol] |  | half-life ([2]; half-life): 1.97 h; half-life ([2]; terminal phase half-life): ~2 h; biological half-life [3]: two to six
8 | [Cl-].[Na+] [sodium chloride] |  | osmotic pressure [4]: 5250 psi
